Key:
[1] = Plasma pharmacokinetics, noncompartmental, SAD/MAD trial; assay type: in vivo, human; details: for Vd/F / half-life: human, in vivo; for Vd/F: Vz/F, N 9, geometric mean (CV% GM)
[2] = Holter ECG, concentration-QTcF, by-time point and categorical analysis; assay type: in vivo, human; details: for mean ΔΔQTcF, by‐time point analysis: 100 mg dose group (n = 6); for Predicted mean ΔΔQTcF: linear mixed model; for Cmax: human, in vivo, Geometric mean Cmax
[3] = tested on: interferon‐accelerated systemic lupus erythematosus; details: mouse model of interferon‐accelerated systemic lupus erythematosus ref 8; cited from earlier work

## C=CC(=O)N1CCC(CNc2ncnc(N)c2-c2ccc(Oc3ccccc3)cc2)CC1 [evobrutinib]
[1]; 25 mg, multiple-dose study day 1, 25 mg
  Vd/F: 498 L
[1]; 75 mg, multiple-dose study day 1, 75 mg
  Vd/F: 620 L
[1]; 200 mg, multiple-dose study day 1, 200 mg
  Vd/F: 647 L
[1]; 500 mg, geometric mean terminal half‐life (t1/2), single doses 350 and 500 mg
  half-life: 6.6 to 6.8 h
[1]; geometric mean terminal half‐life (t1/2), single doses 25–200 mg
  half-life: 1.8 to 2.6 h
[1]; half‐life (relevant t1/2), overall summary, all doses
  half-life: ~2 h
[1]; multiple dosing of 25–200 mg, power model
  dose proportionality of AUC0–24h and Cmax: Dose proportionality of AUC0–24h and Cmax was demonstrated
[1]; part 2, day 14 vs day 1
  time dependency of PK: no time dependency
[1]; single dosing 25–500 mg, part 1
  Apparent clearance across doses: 2,553–3,995 mL/minute
[2]; 25 mg dose group, day 1, parts 1 and 2 pooled
  Geometric mean Cmax: 86.48 ng/mL
[2]; 50 mg and 100 mg dose groups, day 1, 6‐hour and 8‐hour postdose
  treatment‐emergent T wave morphological abnormalities: reported in two evobrutinib‐treated subjects
[2]; 6‐hour postdose
  mean ΔΔQTcF, by‐time point analysis: 7.1 ms
[2]; 8‐hour postdose
  mean ΔΔQTcF, by‐time point analysis: 5.6 ms
[2]; 100 mg dose group, three time points
  mean ΔΔQTcF range: 5.6 to 7.2 ms
[2]; 500 mg dose group, day 1
  Geometric mean Cmax: 1,512.3 ng/mL
[2]; 2 of 81 subjects, both in the 200 mg dose group
  subjects with change from baseline in QTcF between 30 ms and 60 ms: 2.5%
[2]; all time points, except the 100 mg dose group
  mean ΔΔQTcF over the range of doses: < 5 ms
[2]; any dose group, any time point
  absolute QTcF value: ≤ 450 ms
[2]; at geometric mean Cmax of 75 mg dose group
  Predicted mean ΔΔQTcF: -0.82 ms
[2]; at geometric mean Cmax of 200 mg dose group
  Predicted mean ΔΔQTcF: -0.94 ms
[2]; at geometric mean Cmax of 350 mg dose group
  Predicted mean ΔΔQTcF: -0.98 ms
[2]; 50 mg, 50 mg dose group, day 1
  Cmax: 234 ng/mL
[2]; 75 mg, 75 mg dose group, day 1
  Cmax: 254 ng/mL
[2]; 100 mg, 100 mg dose group, day 1
  Cmax: 309 ng/mL
[2]; 350 mg, 350 mg dose group, day 1
  Cmax: 846 ng/mL
[3]
  disease activity: robust reduction in disease activity

Reference: article PMC7070898 (Clinical and Translational Science, 2019)
